Measurements: ChEMBL document CHEMBL3507680, “University of Dundee, Gates Library screen for HepG2 cell viability”

Assay: Human HepG2 cell viability assay in 384 well format
Format: toxicity, cell-based
Set-up: dose 125 nL, time 70.5 hour; cytotoxicity at 70.5 h: concentration not given beside the values
Conditions: HepG2 cells, read-out: Inhibition

SMILES | cytotoxicity at 70.5 h [%]
O=C(O)CCC(=O)N1CCN(CC2CC2)c2ncccc2C1 | 22.2
CN(Cc1nnc(C2CC2)o1)CC1CCCN1c1cccnn1 (configuration not stated) | -9.18
CC(C)(C)c1cnc(CN2CCC(c3ccnn3CCO)CC2)o1 | -11.1
CS(=O)(=O)NC[C@@H]1OC[C@H]2CN(Cc3ccccc3)CC[C@H]21 | -1.13
O=C1CCCN1Cc1nnn2c1CN(c1ncccn1)CCC2 | -9.38
Cc1n[nH]c(C)c1CCC(=O)N1CCC(O)(CN2CCOCC2)C1 (configuration not stated) | 15.2
Cc1nc(C)n(C2CCCN(C(=O)c3cccnc3NC(C)C)C2)n1 (configuration not stated) | -9.03
NC(=O)[C@@H]1Cc2ccccc2CN1CCc1cccs1 | -10
Cc1cccc(N2CC[C@H]3[C@H](CO[C@@H]3CN(C)Cc3ccco3)C2)n1 | 2.69
c1csc(CN2CCOCC3(CCN(C4CCOCC4)C3)C2)c1 (configuration not stated) | -16.8
O=C(c1cn(-c2cc(N3CCSCC3)ncn2)cn1)N1CCOCC1 | 23.9
CC(CNC(=O)Nc1cn[nH]c1)N1CCCC1 (configuration not stated) | 2.24
CCOC(=O)N1CCN(C(=O)CCn2cccc2)CC1 | 7.81
COCCN1C(=O)[C@H]2CC[C@@H]1CN(Cc1nnc(-c3ccccc3)o1)C2 | -4.89
c1ccc(-c2noc(CCCN3CCCC3Cn3cccn3)n2)cc1 (configuration not stated) | 10.7
CCOC(=O)c1c(NC(=O)C2CCN(C(C)=O)CC2)sc(C)c1CC | -6.22
Cc1cc(C(=O)N2CCN(Cc3ccsc3)CC2)n(C)n1 | -14.3
Cc1cc(C)cc(OCCN(C)Cc2cscn2)c1 | 0.706
O=C(N[C@@H]1CNCCC[C@H]1O)c1ccc(OCCN2CCCC2)cc1 | -3.24
Cc1cnc(N2CCN(C(C)C(N)=O)CC2)nc1 (configuration not stated) | -1.41
Cn1nnnc1SCCNC(=O)C1CCN(C(=O)C2CCCC2)CC1 | -5.48
Cc1nc(N[C@H]2COC[C@@H]2N2CCCCC2)c2c(C)nn(C)c2n1 | -4.88
CSc1nccc(N2CCC(=O)N(CC3CC3)C(C(C)C)C2)n1 (configuration not stated) | 54.1

SMILES | cytotoxicity at 70.5 h [%]
CN(Cc1cccc(F)c1)C(=O)CN1CCOC(Cn2cncn2)C1 (configuration not stated) | -0.78
N#Cc1cccnc1OC1CCN(C(=O)NCc2ccccc2)CC1 | -4.78
Cn1ccnc1CN1CCC2(CC1)CC(Oc1cccnc1)C2 | 1.72
Cc1cccnc1CC(C)N(C)C(=O)c1ccoc1C (configuration not stated) | 5.46
COc1ccc2oc(-c3cn(C)nc3C)c(O)c(=O)c2c1 | -1.34
COCCCNC(=O)Cc1cc(-c2ccccc2)on1 | -0.233
COCC(=O)N1CCC(C(=O)Nc2ccc(S(N)(=O)=O)cc2)CC1 | -7.49
CC(C)c1nnc2n1CCN(C(=O)c1ccc(S(C)(=O)=O)cc1)C2 | -5.36
Cc1ccsc1[C@@H]1CCN(C(=O)c2cc3ccccc3[nH]2)C[C@H]1O | 0.623
O=C(c1ccno1)N1CCc2ncnc(-c3ccncc3)c2CC1 | 1.37
CC(C)c1nc2n(n1)CC(NCc1ncc(C(C)(C)C)o1)CC2 (configuration not stated) | 0.95
Cn1cc(C#N)cc1C(=O)Nc1ccc(CN2CCOCC2)cn1 | -2.71
CC(=O)N1CCN(C(=O)c2cccc(OCc3cscn3)c2)CC1 | 0.43
CC(=O)Nc1ncc(S(=O)(=O)N2CCCC(C)C2)s1 (configuration not stated) | -3.6
O=C(CC1CC1)N1CCC2(CC(=O)N(c3cccc(F)c3)C2)C1 (configuration not stated) | -6.99
CCCN(CC)Cn1ncc2cn(-c3ccccc3)nc2c1=O | -2.92
Cc1nc(CN2CC[C@@H]3O[C@@H](C(=O)N4CCOCC4)C[C@@H]32)cs1 | -9.93
CNCc1cn(C2CCN(CCC(C)c3ccccc3)CC2)nn1 (configuration not stated) | 21.7
CC(=O)N1CCN(C(=O)NC(C)C)CC2(CNC(=O)C2)C1 (configuration not stated) | -28.3
Cc1cc(C2CCC2)nc(N(C)Cc2cnccn2)n1 | -6.23
CC(C)CCn1cc(C(C(=O)O)N2CCC(c3ccncc3)CC2)cn1 (configuration not stated) | 19.8
Cn1cc(C2=CCN(CCCC(=O)Nc3ccc(C#N)cc3)CC2)cn1 | 18.4
O=C(C1CCCC1)N1C[C@@H](c2ccsc2)[C@@H]2CN(C3CCCC3)CC[C@@H]21 | -8.32

SMILES | cytotoxicity at 70.5 h [%]
CC1CCc2nn(CCNC(=O)Cc3ccccc3F)c(=O)cc2C1 (configuration not stated) | 0.912
CC(=O)N1CCN(c2ccccc2CNc2cc(F)cc(F)c2)CC1 | 13.8
CC(C)(C)c1cc(=O)n2c(n1)SCC(C(=O)NCc1ccco1)C2 (configuration not stated) | 29.2
N#CC1(NC(=O)c2cc(Cl)ccc2OC(F)F)CCOCC1 | -17.7
CCOCc1ccc(NC(=O)N2CCCC2c2nncn2C)cc1 (configuration not stated) | -6.88
OCC1(O)CCN(c2ncccc2C(F)(F)F)CC1 | -0.128
COCC(=O)N1CCCC(C(=O)NCc2cc(CC(C)C)on2)C1 (configuration not stated) | 27
CCc1nc(C)c(C(=O)NCC2COc3cc(OC)ccc3C2)o1 (configuration not stated) | 42.6
O=C(c1ccccn1)N1C[C@@H](OCc2cccnc2)[C@H]2OCCC[C@@H]21 | 9.73
FC(F)(F)c1ccc(-c2n[nH]c3c2CN(CC2CCOC2)CC3)cc1 (configuration not stated) | -15.3
Cc1ccoc1C(=O)N1CC[C@H]2O[C@@H](C)C[C@H]2C1 | -10.2
CCn1c(CN2CCC(O)(C(=O)OC)CC2)nc2c(F)cccc21 | 31.2
O=C([C@@H]1C[C@@H]2CCN(C3CCOCC3)C[C@@H]2O1)N1CCOCC1 | -7.48
c1ccc(-c2nnc3ccc(N4CCC5(CCOC5)C4)nn23)cc1 (configuration not stated) | 5.72
Cc1ccc(CNC(=O)CN2CCN(CC(O)c3ccco3)CC2)cc1 (configuration not stated) | 29.2
c1csc(-c2nc(CNCCn3cccn3)cs2)c1 | -7.37
CCC(NC1CCN(S(C)(=O)=O)CC1)c1cccs1 (configuration not stated) | -15.6
CCC(Nc1nc(C2CCCC2)nc2c1cnn2C)c1ccncc1 (configuration not stated) | 8.01
CCOCC1CCN(C(=O)C(c2ccc(F)cc2)N(C)C)CC1 (configuration not stated) | -8
CCS(=O)(=O)N1CCC2(COCc3cnc(N4CCOCC4)nc32)C1 (configuration not stated) | -6.84
CCNC(=O)[C@@H]1C[C@@H](NC(=O)c2ccc(C)s2)CN1Cc1ccccn1 | -2.7
O=C(N[C@H]1CCCC[C@@H]1O)c1ccc2nc(-c3ccccc3)[nH]c2c1 | 9.22
CCN(Cc1cccc(C)c1)Cn1nc(C)c2c(C)onc2c1=O | -10.8

SMILES | cytotoxicity at 70.5 h [%]
CC(C)N1CCO[C@H]2CN(C(=O)c3ccncc3)C[C@H]21 | 11.9
CCOC(=O)CNc1nc(C(C)(C)C)nc2c1cnn2C | 1.33
COc1cc(C(=O)O)cc(I)c1OCC(=O)NCCc1ccccc1 | -4.57
CC(C)NC(=O)NCCn1nc(C(F)(F)F)n(C)c1=O | -4.05
CN(C)C(=O)COC[C@]12COC[C@H]1CN(C1CCCC1)C2 | -8.08
CC(CNC(=O)c1cc(C2CC2)on1)N1CCc2ccccc21 (configuration not stated) | 2.16
Cn1cc(CN2CC(C(=O)Nc3ccccc3)C3(CCOCC3)C2)cn1 (configuration not stated) | -9.91
COC[C@]1(O)CCN(Cc2cnc(N(C)C)nc2)CC1(C)C | -18.8
CC(C)c1nc(N2CC(N3CCCCC3C)C2)c2cnn(C)c2n1 (configuration not stated) | 12
CN(Cc1cccc(F)c1)C(=O)CN1CCOC(Cn2cccn2)C1 (configuration not stated) | -2.5
CN(C)C(=O)CN(C)C(=O)c1csc(Br)c1 | 13.6
Cn1ccc(C(=O)N2CCOC(c3ccc(C(N)=O)cn3)C2)n1 (configuration not stated) | 0.762
Cc1cccc(Oc2nccnc2C2CCN(C(=O)C(C)(C)N)CC2)c1 | -4.07
CC1CCCCN1S(=O)(=O)NCCN/C(O)=C1/N=CC=CC1=O (configuration not stated) | -5.82
Cc1nccc(C2(C)CCCNC2)n1 (configuration not stated) | 16.5
CNc1cncc(C2CCCN2Cc2ccnc(C)n2)n1 (configuration not stated) | -0.507
N#Cc1ccc(F)c(CN2CCCC2Cn2cncn2)c1 (configuration not stated) | -5.36
Cn1cc(C(=O)N2CCCC(Cc3nccs3)C2)cn1 (configuration not stated) | -1.09
CC(=O)N1CCCn2c(nc(CNS(=O)(=O)C3CC3)cc2=O)C1 | -2.61
O=C(NCCc1ccccn1)C1(n2cnnn2)CCCCC1 | 14.5
O=C1CC(c2ccncc2)C2(CCN(CCc3ccccc3)CC2)N1 (configuration not stated) | -6.87
Cc1nn(C)c2ncc(S(=O)(=O)N3CCCN4CCCC4C3)cc12 (configuration not stated) | -2.09
CCC(Nc1nc(C)nc2c1cnn2C)c1ncnn1CC (configuration not stated) | -1.28

SMILES | cytotoxicity at 70.5 h [%]
Cc1nc2c(c(NC3CC3)n1)CCN(C(=O)C(C)(C)O)CC2 | 2.5
CCN1CCC2(C=C(C(=O)NC3CC3)c3ccccc32)CC1 | -3.64
CN1CCN(C2CCN(CCOc3ccc(C#N)cc3)CC2)C1=O | -5.65
CC(C)(C)Cc1noc2ncc(C(=O)N3CCSCC3)cc12 | -7.45
O=C(NCc1nc2cc(F)ccc2[nH]1)c1ccc[nH]1 | 17.9
Cc1noc(CC2CCN(C(=O)C(c3ccccc3C)N(C)C)CC2)n1 (configuration not stated) | -12.1
COc1ccc(-c2nnc([C@H]3CCN(C4CCC4)C3)o2)cc1 | -0.264
Cc1nnc2n1CCN(Cc1csc(Cc3ccccc3)n1)C2 | -34.1
CCN(CC)CCn1c(NC(=O)c2scnc2C)nc2ccccc21 | 5.56
CC(C)N1CCc2ncn(C(C)C)c2C1C(=O)NCCN1CCCC1 (configuration not stated) | -7.38
COc1ccccc1CNC(=O)c1[nH]ncc1Cl | 6.24
NC(=O)c1cccc(OCC(=O)N2CCCC(n3cccn3)C2)c1 (configuration not stated) | 3.84
CC(C)n1nc(CN(C)C)c2c1CN(CC1CC1)CC2 | 2.39
NC(=O)C1CCN(Cn2nc(-c3ccc(F)cc3)oc2=O)CC1 | 5.9
O=C(O)C1(n2ccnc2)CCN(Cc2cc3ccccc3o2)CC1 | -5.42
c1ccc2oc(CCCN3CCc4cncnc4C3)nc2c1 | -2.93
CCN1CCN(C(C)CNC(=O)Nc2cnn(CC)c2)CC1 (configuration not stated) | -7.65
CCc1ncc2c(n1)CN(C(C(N)=O)c1ccccc1)CC2 (configuration not stated) | -3.45
COCCN1CCc2cc(C(=O)NC(C)C)c(NCC(C)C)nc2CC1 | -16.4
CC(C)COC1CC2(CCN(Cc3nccn3C)CC2)C1 | 6.92
